# Measured values from patent US9371294B2, “Cycloalkenyl aryl derivatives for CETP inhibitor” (CHONG KUN DANG PHARMACEUTICAL CORP., priority 2011, dated 2016).
# Biological target: T1, cholesteryl ester transfer protein (Homo sapiens, UniProt P11597)
# T1 construct: As a source of cholesteryl ester transfer protein, plasma from healthy humans was used; from tissue; host or cells: plasma from healthy humans
# T1 sequence (P11597 18-493): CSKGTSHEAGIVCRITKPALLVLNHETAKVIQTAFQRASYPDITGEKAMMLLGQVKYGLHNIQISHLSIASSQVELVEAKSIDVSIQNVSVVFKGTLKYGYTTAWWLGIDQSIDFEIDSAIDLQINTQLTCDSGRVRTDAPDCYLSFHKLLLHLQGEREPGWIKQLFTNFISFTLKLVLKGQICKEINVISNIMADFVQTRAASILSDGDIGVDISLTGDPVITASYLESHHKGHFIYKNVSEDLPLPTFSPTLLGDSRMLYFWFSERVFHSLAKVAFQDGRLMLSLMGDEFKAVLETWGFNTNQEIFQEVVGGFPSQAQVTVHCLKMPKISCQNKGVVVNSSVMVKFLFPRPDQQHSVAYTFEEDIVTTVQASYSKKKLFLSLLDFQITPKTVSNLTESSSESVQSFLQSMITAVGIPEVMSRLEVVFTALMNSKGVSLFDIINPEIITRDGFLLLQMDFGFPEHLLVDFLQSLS
# Assay: In vitro test for the ability to inhibit cholesteryl ester transfer
# Type: biochemical
# Settings: [3H]-cholesteryl oleate transfer from rHDL-agarose to LDL; human plasma as CETP source; 37° C.; 16-10000 nM, duplicate
# From the text: In Vitro Test for the Ability to Inhibit Cholesteryl Ester Transfer
# 1. Preparation of Cholesteryl Ester Donor
# In order to prepare a cholesteryl ester donor to be used in the test, a radiolabeled recombinant HDL containing [^3H]-cholesteryl oleate (GE healthcare, TRK886, 3.5 μCi/mg of apoA-1) and apoA-1 was synthesized. Then, rHDL-agarose obtained by immobilizing the recombinant HDL with CNBr-activated Sepharose 4B resin (Amersham Biosciences, Sweden) was used in the test.
# 2. Cholesteryl Ester Transfer Test
# As a source of cholesteryl ester transfer protein, plasma from healthy humans was used, and as cholesteryl ester receptor, LDL from healthy humans was used. Each of test compounds was added to be final concentrations of 16, 80, 400, 2000 and 10000 nM and tested in duplicate. In order to test cholesteryl ester transfer, 20 μl of plasma, 50 μl of LDL (0.25 mg/ml) and 50 μl of rHDL-agarose (0.25 mg/ml) were mixed with each other, and a solution of each test compound was added thereto and reacted thereto at 37° C. Then, the reaction solution was centrifuged at 4° C. for 3 minutes, thereby the reaction was stopped. 150 μl of the supernatant was transferred into a 96-well plate for radioactivity measurement, and the radioactivity thereof was measured with a beta-ray detector.
# 3. Statistical Processing
# The ratio of [^3H]-cholesteryl oleate transferred from HDL to LDL was determined, and based on the determined ratio, the IC50 value of each compound was determined using GraphPad Prism 5.0.
row,SMILES,IC50
1,"COc1ccc(C(C)C)cc1C1=C(CN2C(=S)O[C@H](c3cc(C(F)(F)F)cc(C(F)(F)F)c3)[C@@H]2C)CC(C)(C)CC1 [Compound 15, (4S,5R)-5-(3,5-bis(trifluoromethyl)phenyl)-3-((2-(5-isopropyl-2-methoxyphenyl)-5,5-dimethylcyclohex-1-enyl)methyl)-4-methyloxazolidine-2-thione]",600 nM
2,"COc1cc(F)c(C(C)C)cc1C1=C(CN2C(=S)O[C@H](c3cc(C(F)(F)F)cc(C(F)(F)F)c3)[C@@H]2C)CC(C)(C)CC1 [Compound 17, (4S,5R)-5-(3,5-bis(trifluoromethyl)phenyl)-3-((2-(4-fluoro-5-isopropyl-2-methoxyphenyl)-5,5-dimethylcyclohex-1-enyl)methyl)-4-methyloxazolidine-2-thione]",510 nM
3,"COc1ccccc1C1=C(CN2C(=O)O[C@H](c3cc(C(F)(F)F)cc(C(F)(F)F)c3)[C@@H]2C)CC(C)(C)CC1 [Compound 18, (4S,5R)-5-(3,5-bis(trifluoromethyl)phenyl)-3-((2-(2-methoxyphenyl)-5,5-dimethylcyclohex-1-enyl)methyl)-4-methyloxazolidin-2-one]",1360 nM
4,"COc1cc(F)c(C(C)C)cc1C1=C(CN2C(=S)O[C@H](c3cc(C(F)(F)F)cc(C(F)(F)F)c3)[C@@H]2C)CC(C)CC1 (stereo partly drawn) [Compound 26, (4S,5R)-5-(3,5-bis(trifluoromethyl)phenyl)-3-((2-(4-fluoro-5-isopropyl-2-methoxyphenyl)-5-methylcyclohex-1-enyl)methyl)-4-methyloxazolidine-2-thione]",920 nM
5,"COc1cc(F)c(C(C)C)cc1C1=C(CN2C(=O)O[C@H](c3cc(C(F)(F)F)cc(C(F)(F)F)c3)[C@@H]2C)CCCC1 [Compound 27, (4S,5R)-5-(3,5-bis(trifluoromethyl)phenyl)-3-((2-(4-fluoro-5-isopropyl-2-methoxyphenyl)cyclohex-1-enyl)methyl)-4-methyloxazolidin-2-one]",240 nM
6,"COc1cc(F)c(C(C)C)cc1C1=C(CN2C(=S)O[C@H](c3cc(C(F)(F)F)cc(C(F)(F)F)c3)[C@@H]2C)CCCC1 [Compound 28, (4S,5R)-5-(3,5-bis(trifluoromethyl)phenyl)-3-((2-(4-fluoro-5-isopropyl-2-methoxyphenyl)cyclohex-1-enyl)methyl)-4-methyloxazolidine-2-thione]",390 nM
7,"COc1ccc(C(C)C)cc1C1=C(CN2C(=O)O[C@H](c3cc(C(F)(F)F)cc(C(F)(F)F)c3)[C@@H]2C)CCC(C)(C)C1 [Compound 44, (4S,5R)-5-(3,5-bis(trifluoromethyl)phenyl)-3-((2-(5-isopropyl-2-methoxyphenyl)-4,4-dimethylcyclohex-1-enyl)methyl)-4-methyloxazolidin-2-one]",430 nM
8,"COc1ccc(C=O)cc1C1=C(CN2C(=O)O[C@H](c3cc(C(F)(F)F)cc(C(F)(F)F)c3)[C@@H]2C)CCCC1 [Compound 79, 3-(2-(((4S,5R)-5-(3,5-bis(trifluoromethyl)phenyl)-4-methyl-2-oxooxazolidin-3-yl)methyl)cyclohex-1-enyl)-4-methoxybenzaldehyde]",890 nM
9,"COc1ccc(C(C)O)cc1C1=C(CN2C(=O)O[C@H](c3cc(C(F)(F)F)cc(C(F)(F)F)c3)[C@@H]2C)CCCC1 (stereo partly drawn) [Compound 80, (4S,5R)-5-(3,5-bis(trifluoromethyl)phenyl)-3-((2-(5-(1-hydroxyethyl)-2-methoxyphenyl)cyclohex-1-enyl)methyl)-4-methyloxazolidin-2-one]",100 nM
10,"COc1ccc(C(C)(C)O)cc1C1=C(CN2C(=O)O[C@H](c3cc(C(F)(F)F)cc(C(F)(F)F)c3)[C@@H]2C)CCCC1 [Compound 82, (4S,5R)-5-(3,5-bis(trifluoromethyl)phenyl)-3-((2-(5-(2-hydroxypropan-2-yl)-2-methoxyphenyl)cyclohex-1-enyl)methyl)-4-methyloxazolidin-2-one]",80 nM
11,"COc1ccc(N(C)C(=O)C(C)C)cc1C1=C(CN2C(=O)O[C@H](c3cc(C(F)(F)F)cc(C(F)(F)F)c3)[C@@H]2C)CCCC1 [Compound 86, N-(3-(2-(((4S,5R)-5-(3,5-bis(trifluoromethyl)phenyl)-4-methyl-2-oxooxazolidin-3-yl)methyl)cyclohex-1-enyl)-4-methoxyphenyl)-N-methylisobutyramide]",110 nM
12,"COc1cc(F)c(C(C)C)cc1C1=C(CN2C(=O)O[C@H](c3cc(C(F)(F)F)cc(C(F)(F)F)c3)[C@@H]2C)CC(C(C)(C)C)CC1 (stereo partly drawn) [Compound 101, (4S,5R)-5-(3,5-bis(trifluoromethyl)phenyl)-3-((5-tert-butyl-2-(4-fluoro-5-isopropyl-2-methoxyphenyl)cyclohex-1-enyl)methyl)-4-methyloxazolidin-2-one]",70 nM
13,"COc1ccc(C(C)O)cc1C1=C(CN2C(=O)O[C@H](c3cc(C(F)(F)F)cc(C(F)(F)F)c3)[C@@H]2C)CC(C)(C)CC1 (stereo partly drawn) [Compound 103, (4S,5R)-5-(3,5-bis(trifluoromethyl)phenyl)-3-((2-(5-(1-hydroxyethyl)-2-methoxyphenyl)-5,5-dimethylcyclohex-1-enyl)methyl)-4-methyloxazolidin-2-one]",30 nM
14,"COc1ccc(C(C)(C)O)cc1C1=C(CN2C(=O)O[C@H](c3cc(C(F)(F)F)cc(C(F)(F)F)c3)[C@@H]2C)CC(C)(C)CC1 [Compound 104, (4S,5R)-5-(3,5-bis(trifluoromethyl)phenyl)-3-((2-(5-(2-hydroxypropan-2-yl)-2-methoxyphenyl)-5,5-dimethylcyclohex-1-enyl)methyl)-4-methyloxazolidin-2-one]",180 nM
15,"COc1ccc(C(C)C)cc1C1=C(CN2C(=O)O[C@H](c3cc(C(F)(F)F)cc(C(F)(F)F)c3)[C@@H]2C)CC(C)(C)CC1 [Compound 107, (4S,5R)-5-(3,5-bis(trifluoromethyl)phenyl)-3-((2-(5-isopropyl-2-methoxyphenyl)-5,5-dimethylcyclohex-1-enyl)methyl)-4-methyloxazolidin-2-one]",4 nM
16,"COc1cc(F)c(C(C)C)cc1C1=C(CN2C(=O)O[C@H](c3cc(C(F)(F)F)cc(C(F)(F)F)c3)[C@@H]2C)CCC(C)(C)C1 [Compound 109, (4S,5R)-5-(3,5-bis(trifluoromethyl)phenyl)-3-((2-(4-fluoro-5-isopropyl-2-methoxyphenyl)-4,4-dimethylcyclohex-1-enyl)methyl)-4-methyloxazolidin-2-one]",20 nM
17,"COc1ccc(NC(C)=O)cc1C1=C(CN2C(=O)O[C@H](c3cc(C(F)(F)F)cc(C(F)(F)F)c3)[C@@H]2C)CC(C)(C)CC1 [Compound 110, N-(3-(2-(((4S,5R)-5-(3,5-bis(trifluoromethyl)phenyl)-4-methyl-2-oxooxazolidin-3-yl)methyl)-4,4-dimethylcyclohex-1-enyl)-4-methoxyphenyl)acetamide]",230 nM
18,"COc1ccc(OC(F)(F)F)cc1C1=C(CN2C(=O)O[C@H](c3cc(C(F)(F)F)cc(C(F)(F)F)c3)[C@@H]2C)CC(C)(C)CC1 [Compound 117, (4S,5R)-5-(3,5-bis(trifluoromethyl)phenyl)-3-((2-(2-methoxy-5-(trifluoromethoxy)phenyl)-5,5-dimethylcyclohex-1-enyl)methyl)-4-methyloxazolidin-2-one]",80 nM
19,"COc1cc(F)c(C(C)C)cc1C1=C(CN2C(=O)O[C@H](c3cc(C(F)(F)F)cc(C(F)(F)F)c3)[C@@H]2C)CC(F)(F)CC1 [Compound 123, (4S,5R)-5-(3,5-bis(trifluoromethyl)phenyl)-3-((5,5-difluoro-2-(4-fluoro-5-isopropyl-2-methoxyphenyl)cyclohex-1-enyl)methyl)-4-methyloxazolidin-2-one]",20 nM
20,"COC(=O)N(C)c1ccc(OC)c(C2=C(CN3C(=O)O[C@H](c4cc(C(F)(F)F)cc(C(F)(F)F)c4)[C@@H]3C)CC(C)(C)CC2)c1 [Compound 124, methyl 3-(2-(((4S,5R)-5-(3,5-bis(trifluoromethyl)phenyl)-4-methyl-2-oxooxazolidin-3-yl)methyl)-4,4-dimethylcyclohex-1-enyl)-4-methoxyphenyl(methyl)carbamate]",20 nM
21,"COc1ccc(N(C)S(C)(=O)=O)cc1C1=C(CN2C(=O)O[C@H](c3cc(C(F)(F)F)cc(C(F)(F)F)c3)[C@@H]2C)CC(C)(C)CC1 [Compound 128, N-(3-(2-(((4S,5R)-5-(3,5-bis(trifluoromethyl)phenyl)-4-methyl-2-oxooxazolidin-3-yl)methyl)-4,4-dimethylcyclohex-1-enyl)-4-methoxyphenyl)-N-methylmethanesulfonamide]",60 nM
